Consider five molecules from patent US5858736A, “Preparation of lactams from aliphatic α,ω-dinitriles” (priority 1996, dated 1999).

Converted amounts (≈) assume the structure as drawn.

For series [1] the following is noted: cited from earlier work.
Series [2] can be described thus: Solubility of dinitrile in the aqueous cell suspension. The series is classed as physicochemical. Conditions: aqueous cell suspension of Acidovorax facilis 72W, two-phase above this concentration; read-out: concentration above which the solubility of the dinitrile was exceeded.
Description: Into a 500 mL erlenmeyer flask equipped with magnetic stir bar was placed 50.0 g of frozen Acidovorax facilis 72W (ATCC 55746) cells (previously heat-treated at 50° C. for 1 h before freezing) and 450 mL of potassium phosphate buffer (20 mM, pH 7.0) at 27° C. With stirring, the cells were thawed and suspended, then centrifuged and the supernatant discarded. The cell pellet was resuspended in a total volume of 863 mL of potassium phosphate buffer (20 mM, pH 7.0) in a 1.0 L flask, then 133 g (137.0 mL, 1.25 mole) of 2-methyleneglutaronitrile was added with stirring at 27° C. […] Samples (0.100 mL) were withdrawn, diluted 1:10 with water and centrifuged, then 0.150 mL of the supernatant was placed in a Millipore Ultrafree-MC filter unit (0.22 micron) and mixed with 0.150 mL of an aqueous solution of 0.150M N-methylpropionamide (HPLC external standard solution). The resulting solution was filtered and analyzed by HPLC.
The nature of series [3]: pKa of acid and protonated amine groups / ionization at reaction pH. The series is classed as physicochemical. The settings on record: calculated, reaction mixture pH of between 9 and 10.
Another series in a line: physchem. Conditions: 20 mm phosphate buffer, pH 7, aqueous buffer.
The mark [4] stands for this setting: Lange's Handbook of Chemistry, 14th edn.

For the molecule `CN` [methylamine], the “pKa for the protonated amine (methylamine)” value in series [1] (in water) is 10.62.

As for `C=C(C#N)CCC#N` [2-methyleneglutaronitrile], in series [2], the solubility is at most 400 mM.

Turning to `N.NCCCCCC(=O)O` [6-aminocaproic acid ammonium salt], in series [3], the “fraction of amine groups protonated” value was “approximately half”.

On to `NCCCCCC(=O)O` [6-aminocaproic acid], for which, in series [1] (setting [4]), the “pKa of the carboxylic acid group” value is 4.373 and the “pKa of the protonated amine group” value is recorded as 10.804. Moreover, the “fraction existing in solution as the ammonium salt of the carboxylic acid” value in series [3] is recorded as “at least 99.997%”.

For the molecule `N#CCCCCC#N` [adiponitrile], in “physchem”, the solubility was about 600 mM (≈ 64.9 mg/mL).
